The values below come from patent US20080107707A1, “POLYMERIZABLE ANTIMICROBIAL COMPOSITION” (REGENTS OF THE UNIVERSITY OF COLORADO, priority 2006, published 2008).

A word on the MBC: it is the lowest tested concentration that kills the bacteria rather than only halting them. For orientation: MIC means the lowest concentration that inhibits growth of the organism. Read a low MIC as a more susceptible organism.

Data set [1] concerns S. epidermidis ATCC 12228. In words: Minimum bactericidal concentration (MBC), plating of broth dilution tubes. The format is cell-based, Staphylococcus epidermidis. As for the experimental part: The MBC is another parameter used to assess the usefulness of an antibacterial. It provides some measure of the concentration of agent required to kill bacteria, not just inhibit their growth. In this test, 10 μL of media from each tube were plated on trypticase soy agar (TSA) plates with 5% sheep blood (Becton, Dickinson, and Co., Sparks, Md.) and grown for 24 hr. at 37° C. The MBC was taken to be the lowest VPA concentration at which no colonies were observed.
On the technique in general: Broth dilution looks for growth in wells or tubes with falling amounts of substance.

For data set [2], the system named is S. epidermidis ATCC 12228. In words: Minimum inhibitory concentration (MIC), broth dilution method. The format is cell-based, Staphylococcus epidermidis. As for the experimental part:
The minimum inhibitory concentration (MIC) and minimum bactericidal concentration (MBC) of the monomer were determined by the broth dilution method. Various amounts of VPA were added to 1 mL of brain heart infusion media (BHI) (Becton, Dickinson, and Co., Sparks, Md.) along with 1×10^5 cfu of S. epidermidis ATCC 12228 (MicroBiologics, Inc., St. Cloud, Minn.) using aseptic technique. Cultures were incubated for 24 hr. at 37° C. The MIC was taken to be the lowest VPA concentration at which no turbidity was observed.

Values after ≈ are worked out from the molar mass of the structure shown.

`CN[C@H](CC(C)C)C(=O)N[C@H]1C(=O)N[C@@H](CC(N)=O)C(=O)N[C@H]2C(=O)N[C@H]3C(=O)N[C@H](C(=O)N[C@H](C(=O)O)c4cc(O)cc(O)c4-c4cc3ccc4O)[C@H](O)c3ccc(c(Cl)c3)Oc3cc2cc(c3O[C@@H]2O[C@H](CO)[C@@H](O)[C@H](O)[C@H]2O[C@H]2C[C@](C)(N)[C@H](O)[C@H](C)O2)Oc2ccc(cc2Cl)[C@H]1O` [vancomycin, reference compound] displayed an MBC in data set [1] (Staphylococcus epidermidis, ATCC12228) of 1.12 ± 0.04 µM (≈ 1.62 µg/mL).
On to vancomycin-PEG(3400)-acrylate [VPA], for which the “MBC (lowest concentration at which no colonies were observed)” value in data set [1] (10 μL plated on TSA 5% sheep blood, 24 hr at 37° C, mean ±std. dev.) was found to be 15 ± 1 µg/mL. Besides, the MBC in data set [1] (S. epidermidis ATCC 12228) was determined as 3.0 ± 0.2 µM. The “MIC (lowest concentration at which no turbidity was observed)” value in data set [2] (1×10^5 cfu in 1 mL BHI, 24 hr at 37° C, mean ±std. dev.) was 11.5 ± 0.8 µg/mL. The MIC in data set [2] (S. epidermidis ATCC 12228, broth dilution) was found to be 2.35 ± 0.15 µM.
